Results taken from patent EP0370481A2, “Pharmaceutical preparations for the enhanced resorption of antibacterial compounds” (priority 1988, dated 1990).

Key:
[1] = Enteral absorption in vivo (rats): intraduodenal injection, antibiotic plasma level by agar-plate bioassay; conditions: Dosis = 5 mg/0,5 ml
Description: Weibliche Ratten im Gewicht von etwa 250 g wurden über Nacht fasten gelassen und mit Metofan anästhesiert. Die Antibiotika wurden in Lösung mit oder ohne Resorptionsver, stärker nach Bauchschnitt in das Duodenum unterhalb des Magenausgangs injiziert. Für Vergleichszwecke wurde die Lösung alternativ intravenös in die Schwanzvene appliziert.
Die Konzentration des Antibiotikums im Plasma der Ratte wurde nach verschiedenen Zeitintervallen nach intravenöser oder enteraler Verabreichung bestimmt. Blutproben wurden aus der Schwanzvene des Versuchstiers vor der Verabreichung des Antibiotikums und 5, 10, 20, 40, 60, 120, 240 und 360 Minuten danach entnommen, danach zentrifugiert und das Plasma bis zur Analyse eingefroren.
Antibiotika, die nicht an Plasma gebunden waren, wurden mit Wasser verdünnt und gegen in Wasser hergestellte Standards geprüft. Für gebundene Antibiotika wurde der Einfluss der Proteinbindung eliminiert durch Verdünnen aller Standardlösungen und Proben im gesammelten Plasma. Im Fall von Ceftriaxon in Cefazolin wurde der Effekt der Bindung dadurch berücksichtigt, dass Plasmaproben mit Acetonitril mit einem Verdünnungsfaktor 1:12 deproteinisiert und gegen eine Standardkurve in Wasser verdünnt gemessen wurden. Antibiotikaspiegel wurden wie unten angegeben auf Agarplatten ermittelt.
Die Platten wurden bei 37°C über Nacht bebrütet und die Hemmzonen auf die nächsten […] abgelesen. Die Berechnungen wurden mittels einer Autoassaymaschine (Giles Scientific, Inc., New York) vorgenommen. Vergleiche J.V. Bennett et al., Applied Microbiology 14, 170-177 (1966).

[2] = Rectal absorption in vivo (monkeys): suppositories, plasma level
Description: Für diesen Versuch wurden männliche und weibliche erwachsene Affen (Papio anubis und Papio hamadryas) im Gewicht vom 12-27 kg verwendet, die 24 Stunden vor der Verabreichung des Antibiotikums fasten gelassen wurden, dann durch i.m.-Injektionen von Kefamin Hydrochlorid vor der Verabreichung des Antibiotikums sediert wurden. Aus den nachstehend beschriebenen Formulierungen wurden Suppositorien hergestellt die den Tieren verabreicht wurden. Die Rektalöffnungen wurden dann mit Klebeband verschlossen, um ein Herausdrücken der Suppositorienmasse zu vermeiden.
Zur Messung der Resorption des Antibiotikums in den Blutstrom wurden Blutproben aus der Femoralregion vor der Verabreichung des Antibiotikums und 15, 30, 60, 120, 240, 360 und 480 Minuten danach entnommen. Proben wurden zentrifugiert und wie oben beschrieben vermessen.

[3] = Enteral absorption in vivo (dogs): capsules through a modified Thomas cannula into the proximal jejunum, plasma level and bioavailability; conditions: for Cmax: beagle, dog, plasma
Protocol: Als Versuchstiere wurden sechs Beagle-Hunde im Gewicht von etwa 10-16 kg eingesetzt, denen eine modifizierte Thomaskanüle in das distale Duodenum eingesetzt worden war. […] Die Kapseln wurden durch die modifizierte Thomaskanüle in das proximale Jejunum appliziert. Die Dosierung war 20-50 mg Ceftriaxon pro kg Körpergewicht.
Die Plasmakonzentrationen von Ceftriaxon wurden vor der Verabreichung und 10, 20, 40, 60, 120, 180 und 240 Minuten nach der Verabreichung ermittelt. Zur Erstellung einer Standardkurve wurde Ceftriaxon mit normalem Hundeplasma verdünnt und deproteinisiert. Die Fläche unter der Kurve (AUC) wurde für jede Verabreichungsweise bestimmt. Aus diesen Bestimmungen wurde die Bioverfügbarkeit wie folgt berechnet. [formula]
Wenn keine i.v.-Daten für den gleichen enteral verwendeten Dosisspiegel verfügbar waren, wurde die folgende Gleichung angewandt: [formula]

[4] = Oral absorption in vivo (monkeys): enteric-coated hard gelatin capsules by gavage, plasma bioassay; conditions: for Cmax: monkey, plasma
Protocol: Erwachsene Affen (Papio anubis und Papio hamadryas) im Gewicht von 12-30 kg wurden über Nacht fasten gelassen, dann durch i.m.-Injektion von Ketaminhydrochlorid vor der Verabreichung des Antibiotikums sediert. Jeder Affe erhielt vier Hartgelatinekapseln durch Schlundsonde mit der folgenden Zusammensetzung:
Die Kapseln wurden mit einem Ueberzug von Polyvinylacetatphthalat (etwa 8% des Kapselgewichtes versehen).
1 ml Pro Blutproben wurden aus der Femoralregion jedes Affen mit einer heparinisierten 3-ml Spritze entnommen. Die Proben wurden vor der Verabreichung des Antibiotikums und 15, 30, 60, 120, 240, 360, 480, 600 und 720 Minuten danach entnommen. Die Blutproben wurden zentrifugiert und das Plasma nach Deproteinisierung mit Acetonitril einem Bioassay unterworfen.

[5] = Oral absorption in vivo (dogs): enteric-coated hard gelatin capsules by gavage, plasma level; conditions: for Cmax: male, beagle, dog, plasma
Description: Für diesen Versuch wurden männliche Beagle-Hunde im Gewicht von 10-14 kg verwendet, die 2-3 Hartgelatinekapseln durch die Schlundsonde erhielten. Die Kapseln hatten folgende Zusammensetzung:
Die Kapseln waren mit einem Ueberzug von Polyvinylacetatphthalat (etwa 8% des Kapselgewichtes versehen).
Die Plasmakonzentrationen wurden von Ceftriaxon vor der Verabreichung und 10, 20, 40, 60, 120, 180 und 240 Minuten nach der Verabreichung ermittelt. Die Messungen wurden in Blutplasma nach Deproteinisierung weiter oben beschrieben ermittelt.

[6] = rectal suppository, Kontrolle ohne Resorptionsverstärker
[7] = rectal suppository, Mit Resorptionsverstärker System: 500 mg Antibiotikum, 125 mg Laureth-12, 250 mg Labrasol, 1125 mg Witepsol H15
[8] = both sexes, monkey, plasma, 500 mg, rectal suppository, Mit Resorptionsverstärker System: 500 mg Antibiotikum, 125 mg Laureth-12, 250 mg Labrasol, 1125 mg Witepsol H15, read-out: Cmax Bereich
[9] = both sexes, monkey, plasma, rectal suppository, Kontrolle ohne Resorptionsverstärker, read-out: Cmax Bereich
[10] = enteral (proximal jejunum), 2 capsules with 210 ml Ceftriaxonnatrium in 280 mg WITEPSOL H15 + 157,5 mg Labrasol + 52,5 mg Laureth-12, 20-50 mg/kg
[11] = Kontrollwert: Ceftriaxonnatrium 300 mg in the same capsule without absorption enhancer
[12] = 2-3 enteric-coated capsules each 300 mg Ceftriaxonnatrium, 225 mg Labrasol, 75 mg Laureth-12, 380 mg Witepsol H15

**Q.** For `CN[C@H](CC(C)C)C(=O)N[C@H]1C(=O)N[C@@H](CC(N)=O)C(=O)N[C@H]2C(=O)N[C@H]3C(=O)N[C@H](C(=O)N[C@H](C(=O)O)c4cc(O)cc(O)c4-c4cc3ccc4O)[C@H](O)c3ccc(c(Cl)c3)Oc3cc2cc(c3O[C@@H]2O[C@H](CO)[C@@H](O)[C@H](O)[C@H]2O[C@H]2C[C@](C)(N)[C@H](O)[C@H](C)O2)Oc2ccc(cc2Cl)[C@H]1O` [Vancomycin], which Cmax ([1]; female, rat, in vivo, 5 mg/0,5 ml, Cmax, Kontrolle Wasser, no absorption enhancer) is on record?
**A.** 2.9 ± 0.6 µg/mL

**Q.** And the Cmax ([1]; female, rat, in vivo, 5 mg/0,5 ml, Cmax, Labrasol + Laureth-12 (weight ratio 8:1))?
**A.** 6.9 ± 1 µg/mL

**Q.** What about the Cmax ([1]; female, rat, in vivo, 5 mg/0,5 ml, Cmax, Natriumcaprylat (30%) + Laureth-12 (weight ratio 8:1)) of the same compound?
**A.** 9.8 ± 3.5 µg/mL

**Q.** With `CC1(C)S[C@@H]2[C@H](NC(=O)Cc3ccccc3)C(=O)N2[C@H]1C(=O)O` [Penicillin G] as the compound, how does the Cmax ([2]; baboon, in vivo, rectal suppository, Kontrolle ohne Resorptionsverstärker, read-out: Cmax Bereich) read?
**A.** 1.2 to 2.4 µg/mL

**Q.** And the Cmax ([2]; baboon, in vivo, rectal suppository, Mit Resorptionsverstärker System: 500 mg Antibiotikum, 125 mg Laureth-12, 250 mg Labrasol, 1125 mg Witepsol H15, read-out: Cmax Bereich)?
**A.** 2 to 11.1 µg/mL

**Q.** What about the “% Bioverfügbarkeit” value [2, 6] of the same compound?
**A.** 17.4 ± 8.0%

**Q.** And the “% Bioverfügbarkeit” value [2, 7]?
**A.** 38.2 ± 26.1%

**Q.** What about the Cmax ([1]; rat, in vivo, 5 mg, Cmax, Acconon Con + Laureth-12 (weight ratio 8:1)) of the same compound?
**A.** 3.5 ± 1 µg/mL

**Q.** And the Cmax ([1]; rat, in vivo, 5 mg, Cmax, Kontrolle Wasser, no absorption enhancer)?
**A.** 0.5 ± 0.1 µg/mL

**Q.** And the Cmax ([1]; rat, in vivo, 5 mg, Cmax, Labrasol + Laureth-12 (weight ratio 8:1))?
**A.** 5.2 ± 1.6 µg/mL

**Q.** And the Cmax ([1]; rat, in vivo, 5 mg, Cmax, Natriumcaprylat (30%) + Laureth-12 (weight ratio 8:1))?
**A.** 7.4 ± 2.4 µg/mL

**Q.** For Gentamicin, which Cmax ([1]; Acconon Con + Laureth-12 (weight ratio 8:1)) is on record?
**A.** 15.4 ± 2.3 µg/mL

**Q.** And the Cmax ([1]; Kontrolle Wasser, no absorption enhancer)?
**A.** 3.9 µg/mL

**Q.** And the Cmax ([1]; Labrasol + Laureth-12 (weight ratio 8:1))?
**A.** 9.6 ± 1.9 µg/mL

**Q.** And the Cmax ([1]; Natriumcaprylat (30%) + Laureth-12 (weight ratio 8:1))?
**A.** 14.1 ± 6.9 µg/mL

**Q.** For `Cn1nnnc1SCC1=C(C(=O)O)N2C(=O)[C@@H](NC(=O)[C@H](O)c3ccccc3)[C@H]2SC1` [Cefamandole, Cefamandol], which Cmax [2, 8] is on record?
**A.** 5.9 to 16.4 µg/mL

**Q.** What about the Cmax [2, 9] of the same compound?
**A.** 2.3 to 4.6 µg/mL

**Q.** What about the “% Bioverfügbarkeit” value [2, 6] of the same compound?
**A.** 6.0 ± 2.3%

**Q.** And the “% Bioverfügbarkeit” value [2, 7]?
**A.** 46.5 ± 16.6%

**Q.** Which results are given for `CO[C@@]1(NC(=O)Cc2cccs2)C(=O)N2C(C(=O)O)=C(COC(N)=O)CS[C@@H]21` [Cefoxitin]?
**A.** Cmax [2, 8]: 4.7 to 10.8 µg/mL; % Bioverfügbarkeit [2, 6]: 0%; % Bioverfügbarkeit [2, 7]: 77.0 ± 22.5%

**Q.** With `CO/N=C(\C(=O)N[C@@H]1C(=O)N2C(C(=O)O)=C(CSc3nc(=O)c(=O)[nH]n3C)CS[C@H]12)c1csc(N)n1` [Ceftriaxon] as the compound, how does the Cmax [3, 10] read?
**A.** 19.5 µg/mL

**Q.** And the Cmax ([3]; other: enteral, enteral, Kontrolle: solution of Ceftriaxon in water equivalent to 25 mg/kg, no absorption enhancer)?
**A.** 0.5 µg/mL

**Q.** And the Bioverfügbarkeit [3, 10]?
**A.** 45,4 ± 18,2%

**Q.** And the Bioverfügbarkeit ([3]; enteral, Kontrolle: solution of Ceftriaxon in water equivalent to 25 mg/kg, no absorption enhancer)?
**A.** 0%

**Q.** And the Cmax [2, 8]?
**A.** 18.2 to 49.6 µg/mL

**Q.** And the Cmax ([2]; both sexes, monkey, plasma, 600 mg, rectal, Kontrollwert: 600 mg Ceftriaxonnatrium in suppository mass without absorption enhancer, read-out: Cmax-Bereich)?
**A.** 0.3 to 9 µg/mL

**Q.** What about the Cmax ([2]; both sexes, monkey, plasma, 600 mg, rectal, formulation 600 mg Ceftriaxonnatrium, 200 mg Natriumcaprylat, 125 mg Laureth-12, 1075 mg Witepsol H15, read-out: Cmax-Bereich) of the same compound?
**A.** 68.1 to 1000 µg/mL

**Q.** What about the Cmax [2, 9] of the same compound?
**A.** 0.3 to 9 µg/mL

**Q.** And the “% Bioverfügbarkeit” value [2, 6]?
**A.** 4.3 ± 2.8%

**Q.** And the “% Bioverfügbarkeit” value [2, 7]?
**A.** 31.5 ± 13.1%

**Q.** And the Bioverfügbarkeit ([2]; rectal, Kontrollwert: 600 mg Ceftriaxonnatrium in suppository mass without absorption enhancer)?
**A.** 4,3%

**Q.** What about the Bioverfügbarkeit ([2]; rectal, formulation 600 mg Ceftriaxonnatrium, 200 mg Natriumcaprylat, 125 mg Laureth-12, 1075 mg Witepsol H15) of the same compound?
**A.** 49,3 ± 13.7%

**Q.** What about the Cmax ([1]; female, rat, plasma, 5 mg/0,5 ml, Cmax, Acconon Con + Laureth-12 (weight ratio 8:1)) of the same compound?
**A.** 38.8 ± 22.6 µg/mL

**Q.** What about the Cmax ([1]; female, rat, plasma, 5 mg/0,5 ml, Cmax, Kontrolle Wasser, no absorption enhancer) of the same compound?
**A.** 2.4 ± 1.9 µg/mL

**Q.** And the Cmax ([1]; female, rat, plasma, 5 mg/0,5 ml, Cmax, Labrasol + Laureth-12 (weight ratio 8:1))?
**A.** 106 ± 23 µg/mL

**Q.** What about the Cmax ([1]; female, rat, plasma, 5 mg/0,5 ml, Cmax, Natriumcaprylat (30%) + Laureth-12 (weight ratio 8:1)) of the same compound?
**A.** 53.7 ± 13.3 µg/mL

**Q.** And the Bioverfügbarkeit ([4]; 4 enteric-coated capsules each 300 mg Ceftriaxonnatrium, 225 mg Labrasol, 75 mg Laureth-12, 380 mg Witepsol H15)?
**A.** 10,8 ± 6,5%

**Q.** And the Bioverfügbarkeit [4, 11]?
**A.** 0%

**Q.** What about the Bioverfügbarkeit ([4]; formulation 300 mg Ceftriaxonnatrium, 75 mg Laureth-12, 415 mg Witepsol H15) of the same compound?
**A.** 15,7 + 9,9%

**Q.** And the Cmax ([4]; 300 mg per capsule, formulation 300 mg Ceftriaxonnatrium, 200 ml Natriumcaprylat, 75 mg Laureth-12, 415 mg Witepsol H15, read-out: Cmax-Bereich)?
**A.** 15 to 66.3 µg/mL

**Q.** And the Cmax ([4]; 1200 mg, 4 enteric-coated capsules each 300 mg Ceftriaxonnatrium, 225 mg Labrasol, 75 mg Laureth-12, 380 mg Witepsol H15, read-out: Cmax-Bereich)?
**A.** 5.5 to 59.8 µg/mL

**Q.** What about the Bioverfügbarkeit [5, 12] of the same compound?
**A.** 34,2 ± 14,0%

**Q.** What about the Bioverfügbarkeit [5, 11] of the same compound?
**A.** 0%

**Q.** What about the Bioverfügbarkeit ([5]; formulation 300 mg Ceftriaxonnatrium, 200 mg Natriumcaprylat, 75 mg Laureth-12, 415 mg Witepsol H15) of the same compound?
**A.** 22,4 + 13,5%

**Q.** What about the Cmax ([5]; 300 mg per capsule, formulation 300 mg Ceftriaxonnatrium, 200 mg Natriumcaprylat, 75 mg Laureth-12, 415 mg Witepsol H15) of the same compound?
**A.** 14.4 µg/mL

**Q.** And the Cmax [5, 12]?
**A.** 21.6 µg/mL
